These results are taken from PubChem BioAssay (NCI).

Each structure is given as a SMILES string.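 1) Cells in 96-well plates. 2) Compound, 48 h, 5 concentrations. 3) Linear interpolation between surrounding doses. 4) Unreached endpoint = highest concentration. TGI: concentration producing complete growth inhibition.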

Test systems include DU-145 prostate; SK-MEL-5 melanoma; SF-268 CNS; OVCAR-8 ovarian; SW-620 colon; UACC-257 melanoma; T-47D breast; OVCAR-5 ovarian; RPMI-8226 leukemia; SK-OV-3 ovarian.
Assay in all cases: NCI tumour cell line growth inhibition, 48 h

As to `CCOP(=O)(OCC)C1CC(n2cc(C)c(=O)[nH]c2=O)OC1CO` (stereo not given), the TGI in the assay on DU-145 prostate, in the assay with SK-MEL-5 melanoma, in the assay on SF-268 CNS, in the assay with OVCAR-8 ovarian, in the assay on SW-620 colon and in the assay with UACC-257 melanoma was over 100 µM each time. For the same compound, the TGI in the assay with T-47D breast, in the assay on OVCAR-5 ovarian and with RPMI-8226 leukemia was over 100 µM each time.
Turning to `O=C(Cn1c(C(=O)/C=C/c2cccs2)nc2ccccc21)c1ccc(Cl)cc1`, the TGI in the assay with DU-145 prostate is over 100 µM; with SK-MEL-5 melanoma, 43.3 µM; with SF-268 CNS, 66.5 µM; in the assay on SW-620 colon, over 100 µM; in the assay on UACC-257 melanoma it was 58.1 µM; with T-47D breast it was over 100 µM. In addition, the TGI with OVCAR-5 ovarian is over 100 µM; in the assay with RPMI-8226 leukemia, 29.3 µM; in the assay with SK-OV-3 ovarian, over 100 µM.
`CC1(C)[C@H]2CC[C@]1(C)[C@H](OC(=O)NNC(=O)O[C@@H]1C[C@@H]3CC[C@@]1(C)C3(C)C)C2`: the TGI in the assay with DU-145 prostate was 32.7 µM; in the assay with SK-MEL-5 melanoma it was 25.5 µM; in the assay on SF-268 CNS, 33.1 µM; in the assay with SW-620 colon it was 72.9 µM; with UACC-257 melanoma it was 33 µM; in the assay on T-47D breast it was 23 µM. Moreover, the TGI in the assay with OVCAR-5 ovarian came out at 34.1 µM; in the assay on RPMI-8226 leukemia, 30.7 µM; in the assay with SK-OV-3 ovarian, 28.6 µM.
As to `CCOC(=O)c1cc2c(C(=O)c3ccc([N+](=O)[O-])cc3)c(C(C)=O)ccc2[nH]1`, the TGI was over 100 µM in the assay with DU-145 prostate; over 100 µM with SK-MEL-5 melanoma; 38.9 µM in the assay with SF-268 CNS; over 100 µM with SW-620 colon; over 100 µM in the assay on UACC-257 melanoma; over 100 µM in the assay with T-47D breast. Besides, the TGI was over 100 µM in the assay with OVCAR-5 ovarian, over 100 µM with RPMI-8226 leukemia and 51.3 µM with SK-OV-3 ovarian.
For the compound `O=C(c1cc(Cl)ccc1Cl)N1CCN(C(=O)c2cc(Cl)ccc2Cl)CC1`, the TGI in the assay with DU-145 prostate, in the assay with SK-MEL-5 melanoma, in the assay on SF-268 CNS, in the assay with OVCAR-8 ovarian, in the assay with SW-620 colon and in the assay on UACC-257 melanoma was over 100 µM in each case. Further, the TGI in the assay with T-47D breast, in the assay with OVCAR-5 ovarian and with RPMI-8226 leukemia was over 100 µM each time.
As for `C/C=C(/C)C(=O)O[C@H](C[C@@H](C)[C@H]1CC(c2ccoc2)OC1=O)[C@@]1(C)C(=O)CCC2O[C@]21C` (stereo not given in full), the TGI in the assay on DU-145 prostate, in the assay with SK-MEL-5 melanoma, in the assay with OVCAR-8 ovarian, in the assay on SW-620 colon, in the assay with UACC-257 melanoma and in the assay with T-47D breast was over 100 µM throughout. Besides, the TGI in the assay on OVCAR-5 ovarian, with RPMI-8226 leukemia and in the assay on SK-OV-3 ovarian was over 100 µM throughout.
With `CCOC(=O)c1cc2c3c(c(C(C)=O)c(O)c2[nH]1)N(CC(C)CC)CC3` (stereo not given), the TGI with DU-145 prostate was over 100 µM; in the assay with SF-268 CNS, over 100 µM; with OVCAR-8 ovarian, over 100 µM; with SW-620 colon, over 100 µM; in the assay on UACC-257 melanoma, over 100 µM; in the assay with T-47D breast, 92.6 µM. Besides, the TGI with RPMI-8226 leukemia and in the assay on SK-OV-3 ovarian was over 100 µM in each case.
As to `CCCCCC(C)SC1(C(=O)OC)CC(OC(C)=O)C(NC(C)=O)C([C@H](OC(C)=O)[C@@H](COC(C)=O)OC(C)=O)O1` (stereo not given in full), the TGI with DU-145 prostate, in the assay on SK-MEL-5 melanoma, in the assay with SF-268 CNS, with OVCAR-8 ovarian, in the assay with SW-620 colon and with UACC-257 melanoma was over 100 µM throughout. The TGI in the assay on T-47D breast, with OVCAR-5 ovarian and in the assay on RPMI-8226 leukemia was over 100 µM throughout.
Turning to `CCN(C(=S)N[C@H](C(=O)N[C@@H](C)C(=O)OC)C(C)C)c1ccccc1`, the TGI with DU-145 prostate, in the assay with SK-MEL-5 melanoma, with OVCAR-8 ovarian, in the assay with SW-620 colon, in the assay on UACC-257 melanoma and with T-47D breast was over 100 µM throughout. Besides, the TGI with OVCAR-5 ovarian, in the assay with RPMI-8226 leukemia and with SK-OV-3 ovarian was over 100 µM throughout.
On to `COc1ccc(-c2cc(-c3cc4cc(Br)ccc4nc3Cl)c(C#N)c(N)n2)cc1`, for which the TGI in the assay on DU-145 prostate, in the assay with SK-MEL-5 melanoma, with SF-268 CNS, with OVCAR-8 ovarian, with SW-620 colon and in the assay on T-47D breast was over 12.5 µM each time. Moreover, the TGI in the assay with OVCAR-5 ovarian, with RPMI-8226 leukemia and in the assay on SK-OV-3 ovarian was over 12.5 µM in each case.
`CC1(C)C2C=CC1(C)C1(CC2)OCCO1` (stereo not given): the TGI in the assay on DU-145 prostate, in the assay on SF-268 CNS, with OVCAR-8 ovarian, in the assay on SW-620 colon, in the assay on UACC-257 melanoma and in the assay with T-47D breast was over 100 µM throughout. For the same compound, the TGI with OVCAR-5 ovarian, with RPMI-8226 leukemia and in the assay on SK-OV-3 ovarian was over 100 µM throughout.
For the compound `O=c1c2cc(I)ccc2nc(-c2cccs2)n1-c1ccc(O)cc1`, the TGI with DU-145 prostate worked out at 19.7 µM; in the assay with SK-MEL-5 melanoma, 24.3 µM; with SF-268 CNS, 32.8 µM; in the assay with OVCAR-8 ovarian, 29.4 µM; in the assay with SW-620 colon it was 69.6 µM; in the assay on UACC-257 melanoma, 22.1 µM. The figures for the TGI in the assay on T-47D breast, with OVCAR-5 ovarian and in the assay on RPMI-8226 leukemia were 10.7 µM, 30.2 µM and 18.3 µM, respectively.
As for `COc1ccc(NC(C)=O)cc1N1C(=O)/C(=C\c2cc(OC)c(OC)c(OC)c2)SC1c1ccccc1` (stereo not given), the TGI in the assay on DU-145 prostate, in the assay with SK-MEL-5 melanoma, with OVCAR-8 ovarian, with SW-620 colon, with UACC-257 melanoma and in the assay on T-47D breast was over 100 µM throughout. The TGI in the assay on OVCAR-5 ovarian, in the assay with RPMI-8226 leukemia and in the assay on SK-OV-3 ovarian was over 100 µM each time.
For the compound `N#Cc1c(-c2ccc(Cl)cc2)c2c(n(C3OC(CO)C(O)C(O)C3O)c1=S)CCC2` (stereo not given), the TGI in the assay on DU-145 prostate was over 100 µM; in the assay on SK-MEL-5 melanoma, 26 µM; in the assay on SF-268 CNS, 84.7 µM; in the assay with SW-620 colon it was 58.4 µM; in the assay on UACC-257 melanoma, 87.2 µM; in the assay with T-47D breast, 45.8 µM. Besides, the TGI in the assay on OVCAR-5 ovarian, in the assay with RPMI-8226 leukemia and with SK-OV-3 ovarian was over 100 µM throughout.
